# Tests used:
# [1] = Hepatic microsome stability assay, rat; format: in vitro ADME; details: rat microsomes
# Description: Hepatic Microsome Assay. Hepatic microsomes stability assays were performed in accordance with known methods (Peddibhotla, et al. (2013) ACS Med. Chem. Lett. 4:846-851). Briefly, 3 μL of 25 μM compound solution in acetonitrile were incubated with 123 μL of mouse, human or rat liver microsomes (Xenotech, Kansas City, Kans.). […] The microsomal concentrations used were 1.0 mg/mL. Compounds were incubated in microsomes for 0, 5, 15, 30 and 60 minutes. The reactions were stopped by the addition of ice cold ACN and the reaction mixtures were centrifuged at 10,000 g for 10 minutes before the supernatant was removed for analysis. A 10 μL portion of the resulting extract was injected on a Thermo HPLC system equipped with PAL CTC plate sampler (96-well plate), Dionex Ultimate 3000 binary pump (flow rate at 0.600 mL/min), Dionex Ultimate 3000 thermostatted column compartment (temperature at 40° C.), Thermo Endura Mass Spectrometer (ESI source), using a Thermo Scientific Accucore C18 (2.6 μM, 2.1×50 mm) column. A gradient was run starting at 95% H2O (0.1% formic acid) and 5% ACN (0.1% formic acid) during the first 0.5 min, then under gradient condition of 5-100% ACN (0.1% formic acid) from minute 0.5 to 3.5, finishing at 95% H2O (0.1% formic acid) and 5% ACN (0.1% formic acid) over 0.5 min, with another 1 min at 95:5 to re-equilibrate.
# [2] = system: estrogenic activity; assay: Counter-screen for estrogenic activity (E47MER luciferase reporter in HeLa cells); format: cell-based, human; details: FIG. 5
# Description: Counter-Screen for Estrogenic Activity. Estrogenic activity was monitored by co-transfection of a reporter plasmid containing a multimerized E-box 5′ of a minimal promoter fused to the Firefly luciferase gene (4RTK-luc) with wild-type E47 or E47MER (Kiselyuk, et al. (2010) J. Biomol. Screen 15(6):663-70). HeLa cells were transfected using polyethylenimine, 0.2 μg 4RTK-Luc plasmid and either 0.3 μg of human E47, E47MER or pMSCVhph vector in 50 μl of serum-free Dulbecco's modification of Eagle medium per well. Transfections included Renilla luciferase (pRL-TK) plasmid as a control for transfection efficacy. Transfection conditions were as described in the PPRE-Luc reporter assay of Kiselyuk, et al. ((2010) J. Biomol. Screen 15(6):663-70). Sixteen hours after transfection, culture media were changed and maintained for 48 hours with tamoxifen and/or compound or vehicle (DMSO). Cells were then lysed and assayed for luciferase activity using the Promega DUAL-LUCIFERASE® reporter assay kit (Promega Corp., Madison, WI), and luminescence was measured using the Veritas™ Microplate Luminometer (Turner Biosystems, Sunnyvale, CA). Data were normalized to Renilla luciferase (pRL-TK) and expressed as fold-change over vehicle alone.
# [3] = system: diet-induced obese mice; assay: Efficacy and tolerability in diet-induced obese mice; format: in vivo
# Description: Alkaline Phosphatase (ALP) Quantitation. Increased levels of ALP in blood are considered indicative of liver function abnormalities. Thus, ALP was assayed in accordance with known methods (Kiselyuk, et al. (2012) Chem. Biol. 19(7):806-818). Briefly, prior to sacrifice, blood was drawn and analyzed using a Vet Scan blood analyzer, measuring alkaline phosphatase (ALP, IU/L), alanine aminotransferase (ALT, IU/L), gamma glutamyl transferase (GGT, IU/L), bile acids (BA, μmol/L), total bilirubin (TBIL, mg/dL), albumin (ALB, g/dL), blood urea nitrogen (BUN, mg/dL), and cholesterol (CHOL, mg/dL).
# Triglyceride (TG) Quantitation. TG quantity was assayed using a Triglyceride Colorimetric Assay Kit (Cayman Chemicals; Ann Arbor, MI) according to the manufacturer's instructions.
# Lipid Droplet Size Analysis. All slides were scanned at a magnification of 20× using the Aperio Scanscope FL system (Aperio Technologies Inc.; Vista, CA). The appropriate dyes were assigned and illumination levels were calibrated using a preset procedure; the parameters were saved and applied to all slides. The acquired digital images represented whole tissue sections. Sections were evaluated for image quality. All acquired images were subsequently placed in dedicated project folders, and stored on a designated local server. Selected areas of the slides were selected using Aperio Imagescope (version 12 Aperio Technologies Inc.). For analysis, slides were viewed, whole tissue areas were selected and analyzed using the web-based Image Scope viewer. Slides were quantified using the ‘Color Deconvolution v9’ algorithm for oil redo staining (version 11 Aperio Technologies Inc.). The algorithm was optimized using a preset procedure to maximize the strong red color positive oil droplets signal to noise ratio and the subsequent macro was saved and applied to all slides.
# HNF4α Immunostaining in Organ Samples. Samples were harvested from mice, fixed in 4% paraformaldehyde and embedded in paraffin or O.C.T. freezing media (Sakura Finetek; Torrance, CA) Slides of 5 μm thickness were washed four times with PBS and treated with 0.3% Triton™ in PBS for 10 minutes. Antigen retrieval was carried out with CitriSolv™ (Fisher Scientific; Waltham, MA) for 10 minutes in sub-boiling temperature. After washing with PBS for 10 minutes, slides were incubated in blocking solution with 5% normal donkey serum (Jackson Immuno Research; West Grove, PA) for 60 minutes at room temperature. Cells were fixed in 4% paraformaldehyde for 15 minutes on 4° C. and washed with PBS, treated with 0.3% Triton™ in PBS for 10 minutes and blocked as previously described for slide samples.
# Primary Antibodies. HNF4α antibodies were used (#sc-6556, Santa Cruz Biotechnology; Santa Cruz, CA and #3113, Cell Signaling Technology; Danvers, MA). For fluorescent imaging, samples were incubated with ALEXA FLOUR® 488 green-fluorescent dye or Rhodamine labeled anti-mouse, rabbit or goat and nuclei were counterstained with DAPI (4′,6-diamidino-2-phenylindole) Controls using secondary antibodies alone were used to ensure specificity of immunostaining. Fluorescently labeled sections were analyzed with a conventional inverted microscope (Olympus, PlanFl 40×/0.60) or with a confocal microscope equipped with a krypton/argon laser.
# The experiments were performed to establish feeding and treatment regimen, dosing and administration regimens, as well as to provide evidence of beneficial effects of N-trans-caffeoyltyramine on glucose and lipid homeostasis, hepatic steatosis, β-cell function and hepatocyte function. Twelve mice (10 weeks old) were fed a high-fat diet for four weeks to induce obesity. After four weeks, and while on the high-fat diet, six mice were administered 5% DMSO or 120 mg/kg N-trans-caffeoyltyramine twice a day intraperitoneally for 14 days. One hour after the last i.p. injection of DMSO or N-trans-caffeoyl tyramine, the animals were sacrificed and blood and organ (liver, kidney, gut and pancreas) samples were collected. […]
structure (smiles),measurement,setting,value
O=C(/C=C/c1ccc(O)c(O)c1)NCCc1ccc(O)cc1 [N-trans-caffeoyltyramine],% Remaining,[1]; 1 μM,0.6%
same,% Remaining,[1]; 10 μM,33.6%
same,Estrogenic activity,[2],did not exhibit estrogenic activity
same,Lipid accumulation in the liver,[3]; 120 mg/kg twice a day i.p. for 14 days,decreased
same,"Weight loss, sickness or abnormal behaviors compared to control","[3]; 120 mg/kg twice a day i.p. for 14 days, high-fat diet mice","None of the treated mice exhibited weight loss, sickness, or abnormal behaviors"
same,Lipid droplet sizes in the liver,"[3]; 120 mg/kg twice a day i.p. for 14 days, FIG. 8",reduced
same,HNF4α expression in the liver,"[3]; 120 mg/kg twice a day i.p. for 14 days, P=0.0042, FIG. 7",significantly increased
same,HNF4α expression in intestines,[3]; FIG. 12,increased
same,Levels of alkaline phosphatase,"[3]; blood, 120 mg/kg twice a day i.p. for 14 days, FIG. 9",significantly reduced
same,HNF4α expression in the pancreas,"[3]; compared to DMSO control mice, FIG. 11",increased
same,Levels of triglycerides,"[3]; liver, 120 mg/kg twice a day i.p. for 14 days, FIG. 10",significantly reduced

# — US12285392B2, “Method for modulating metabolism” (Brightseed, Inc., priority 2018, dated 2025)
